Patent publication US6835728B2, “Drug combination for the treatment of depression and related disorders comprising mirtazapine” (Akzo Nobel N.V., priority 2001, dated 2004)
Marks after values point to notes of the source that are not given here.

How the values were obtained:
Assay type in all cases: in vivo
mice = assay: Defensive (marble) burying test in mice; details: mouse, administered alone, S.C., pre-treatment 30 min
Description: Marble burying has been developed and validated as a pre-clinical assay of potential anxiolytic activity (Andrews and Broekkamp (1993). Procedures to identify anxiolytic or anxiogenic agents. In Behavioural Neuroscience, ed. A Sahgal, pp. 37-54. IRL Press, Oxford). The marble burying test places a naive mouse into a novel environment containing 25 marbles (arranged on top of a saw dust surface). A reduction in the number of marbles buried by the mouse has been hypothesised to be an anxiolytic-like/anti-depressant-like effect.
A further series of three separate experiments were conducted during which three single doses of mirtazapine (0.3, 1, 3 mg.kg^−1) were co-administered S.C. with a range of S.C. gepirone doses (0, 0.1, 0.3, 1, 3 mg.kg^−1).

Sprague-Dawley rats [1] = assay: EEG sleep-waking behaviour test in rats; details: rat, I.P., change over control
Procedure: The aim of this test was to characterise the effects on rat sleep-waking behaviour of gepirone alone and of gepirone after co-administration with mirtazapine. To this end additionally the effects of mirtazapine on it own were investigated. Sleep-waking behaviour was analysed by using electroencephalographic (EEG) recordings, electromyographic (EMG) recordings, and by recording a movement index. On the basis of these signals sleep-waking behaviour was automatically classified per 2 second periods into 6 classes: active waking, passive waking, light sleep, deep sleep, intermediate stage sleep and REM sleep (Ruigt et al. A large scale automated system for rat sleep staging. I. Methodology and technical aspects. Electroenceph. and Clin. Neurophysiol.; 1989; 73:52-64). Each experiment is performed simultaneously on 32 adult male Sprague-Dawley rats (Harlan Olac, Bicester, UK, weighing […]), subdivided into four treatment groups. Throughout the whole experiment the animals stay in recording cages and are only taken out to be injected with vehicle or test compound(s). Each experiment contains three sessions. The first session (“test session”), commencing at 10:00 AM with a variable duration of 2-5 hours, serves as adaptation period and is used to assess the quality of the EEG and EMG signals recorded. The second and third sessions both start at 2:30 PM on two consecutive days and have a duration of 15.5 hours each. At the start of the second session all groups receive a vehicle treatment, at the start of the third session all groups receive their test compound(s). One of the treatment groups usually receives the vehicle treatment in both sessions to serve as a baseline for the other groups in the experiment. Separate experiments were done in which different single I.P. administered doses of either gepirone (1.0, 3.0, 10.0 mg/kg), or mirtazapine (2.2, 4.6, 10 mg/kg), or mirtazapine (2.2 mg/kg) in combination with gepirone (1.0, 3.0, 10 mg/kg) were tested. Gepirone was dissolved in 0.9% NaCl m/v in water (saline); mirtazapine was dissolved in 5% m/v Mulgofen (EL 719, GAF) in saline (=0.9% m/v NaCl in water). The drug-induced changes in sleep waking behaviours after I.P. administration of mirtazapine, gepirone, and mirtazapine in combination with gepirone are presented in Tables II, III and IV. […]

Sprague-Dawley rats [2] = assay: Psychotropic drug class prediction by discriminant analysis of effects on rat sleep-waking behaviour; details: I.P.
Procedure: The effect profiles for these compounds at active doses were subjected to a discriminant analysis over these 6 psychoactive classes with placebo being added as an extra class. The resulting discriminant function was used to predict the pharmaco-therapeutic application area for gepirone alone and after co-administration with mirtazapine. Finally, the effect profiles of gepirone, mirtazapine, and the combination of gepirone and mirtazapine were calculated on the basis of vectors derived from the changes in sleep-wake organisation as shown in tables above. For each dose, the probability that the compound belongs to one of 7 defined classes was calculated.

[3] = mirt 2.2 mg/kg, 0 to 3 hours after drug injection
[4] = mirt 2.2 mg/kg, 3 to 6 hours after drug injection
[5] = mirt 2.2 mg/kg, 9 to 15 hours after drug injection
[6] = gepir 1.0 mg/kg, 0 to 3 hours after drug injection
[7] = gepir 1.0 mg/kg, 3 to 6 hours after drug injection
[8] = gepir 1.0 mg/kg, 9 to 15 hours after drug injection
[9] = gepir 3.0 mg/kg, 0 to 3 hours after drug injection
[10] = gepir 3.0 mg/kg, 3 to 6 hours after drug injection
[11] = gepir 3.0 mg/kg, 9 to 15 hours after drug injection
[12] = gepir 10.0 mg/kg, 0 to 3 hours after drug injection
[13] = gepir 10.0 mg/kg, 3 to 6 hours after drug injection
[14] = gepir 10.0 mg/kg, 9 to 15 hours after drug injection

In the case of CN1CCN2c3ncccc3Cc3ccccc3C2C1 (centres unmarked) [Mirtazapine, mirtazapine], the ED50 marble burying (mice) is reported as 5.5 mg/kg, the “Latency from time of injection to Deep sleep” value (“Latency … to Deep sleep” for short) (Sprague-Dawley rats [1]; [3]) is reported as −36% and the “Latency from time of injection to REM sleep” value (“Latency … to REM sleep” below) (Sprague-Dawley rats [1]; [3]) is reported as 27%. The “Median duration Active waking” value (Sprague-Dawley rats [1]; [3]) was 19%, the “Median duration Deep sleep” value (Sprague-Dawley rats [1]; [3]) was 13% and the “Median duration Intermediate sleep” value (Sprague-Dawley rats [1]; [3]) was −85* %. For the same compound, the “Median duration Light sleep” value (Sprague-Dawley rats [1]; [3]) was 7%, the “Median duration Passive waking” value (Sprague-Dawley rats [1]; [3]) was −5% and the “Median duration REM sleep” value (Sprague-Dawley rats [1]; [3]) was −88* %. The “Median duration Active waking” value (Sprague-Dawley rats [1]; [4]) was 68%, the “Median duration Deep sleep” value (Sprague-Dawley rats [1]; [4]) was 19% and the “Median duration Intermediate sleep” value (Sprague-Dawley rats [1]; [4]) was −74* %. For the same compound, the “Median duration Light sleep” value (Sprague-Dawley rats [1]; [4]) was 10%, the “Median duration Passive waking” value (Sprague-Dawley rats [1]; [4]) was 17% and the “Median duration REM sleep” value (Sprague-Dawley rats [1]; [4]) was −52* %. For the same compound, the “Median duration Active waking” value (Sprague-Dawley rats [1]; [5]) was −16%, the “Median duration Deep sleep” value (Sprague-Dawley rats [1]; [5]) was 20% and the “Median duration Light sleep” value (Sprague-Dawley rats [1]; [5]) was 27%. The “Median duration Passive waking” value (Sprague-Dawley rats [1]; [5]) was −8%, the “Median duration REM sleep” value (Sprague-Dawley rats [1]; [5]) was 22% and the “Median duration Intermediate sleep” value (Sprague-Dawley rats [1]; mirt 2.2 mg/kg) was 111%. The “Probability score AC (anticonvulsant)” value (Sprague-Dawley rats [2]; mirtazapine 2.2 mg/kg) was 9%, the “Probability score AD (antidepressant)” value (Sprague-Dawley rats [2]; mirtazapine 2.2 mg/kg) was 22% and the “Probability score APS (antipsychotic)” value (Sprague-Dawley rats [2]; mirtazapine 2.2 mg/kg) was 3%. The “Probability score AXL (anxiolytic)” value (Sprague-Dawley rats [2]; mirtazapine 2.2 mg/kg) was 20%, the “Probability score HYP (hypnotic)” value (Sprague-Dawley rats [2]; mirtazapine 2.2 mg/kg) was 29% and the “Probability score PLAC (placebo)” value (Sprague-Dawley rats [2]; mirtazapine 2.2 mg/kg) was 16%. For the same compound, the “Probability score STIM (stimulant)” value (Sprague-Dawley rats [2]; mirtazapine 2.2 mg/kg) was 0%.

With CC1(C)CC(=O)N(CCCCN2CCN(c3ncccn3)CC2)C(=O)C1 [Gepirone, gepirone] the ED50 marble burying (mice) was 2.16 mg/kg, the “Latency … to Deep sleep” value (Sprague-Dawley rats [1]; [6]) was 24% and the “Latency … to REM sleep” value (Sprague-Dawley rats [1]; [6]) was 3%. The “Median duration Active waking” value (Sprague-Dawley rats [1]; [6]) was −58* %, the “Median duration Deep sleep” value (Sprague-Dawley rats [1]; [6]) was −2% and the “Median duration Intermediate sleep” value (Sprague-Dawley rats [1]; [6]) was −11%. The “Median duration Light sleep” value (Sprague-Dawley rats [1]; [6]) was 23%, the “Median duration Passive waking” value (Sprague-Dawley rats [1]; [6]) was 13% and the “Median duration REM sleep” value (Sprague-Dawley rats [1]; [6]) was 4%. The “Median duration Active waking” value (Sprague-Dawley rats [1]; [7]) was 6%, the “Median duration Deep sleep” value (Sprague-Dawley rats [1]; [7]) was −5% and the “Median duration Intermediate sleep” value (Sprague-Dawley rats [1]; [7]) was 32%. For the same compound, the “Median duration Light sleep” value (Sprague-Dawley rats [1]; [7]) was 8%, the “Median duration Passive waking” value (Sprague-Dawley rats [1]; [7]) was 5% and the “Median duration REM sleep” value (Sprague-Dawley rats [1]; [7]) was 20%. The “Median duration Deep sleep” value (Sprague-Dawley rats [1]; [8]) was 2%, the “Median duration Intermediate sleep” value (Sprague-Dawley rats [1]; [8]) was −2% and the “Median duration Light sleep” value (Sprague-Dawley rats [1]; [8]) was 14%. The “Median duration Passive waking” value (Sprague-Dawley rats [1]; [8]) was 38%, the “Median duration REM sleep” value (Sprague-Dawley rats [1]; [8]) was −12% and the “Median duration Active waking” value (Sprague-Dawley rats [1]; gepir 1.0 mg/kg) was −16%. For the same compound, the “Latency … to Deep sleep” value (Sprague-Dawley rats [1]; [9]) was 24%, the “Latency … to REM sleep” value (Sprague-Dawley rats [1]; [9]) was 360* % and the “Median duration Active waking” value (Sprague-Dawley rats [1]; [9]) was −8%. For the same compound, the “Median duration Deep sleep” value (Sprague-Dawley rats [1]; [9]) was −21%, the “Median duration Intermediate sleep” value (Sprague-Dawley rats [1]; [9]) was −76% and the “Median duration Light sleep” value (Sprague-Dawley rats [1]; [9]) was 8%. The “Median duration Passive waking” value (Sprague-Dawley rats [1]; [9]) was 156* %, the “Median duration REM sleep” value (Sprague-Dawley rats [1]; [9]) was −83* % and the “Median duration Active waking” value (Sprague-Dawley rats [1]; [10]) was 30%. For the same compound, the “Median duration Deep sleep” value (Sprague-Dawley rats [1]; [10]) was −6%, the “Median duration Intermediate sleep” value (Sprague-Dawley rats [1]; [10]) was 64* % and the “Median duration Light sleep” value (Sprague-Dawley rats [1]; [10]) was −2%. For the same compound, the “Median duration Passive waking” value (Sprague-Dawley rats [1]; [10]) was 13%, the “Median duration REM sleep” value (Sprague-Dawley rats [1]; [10]) was −3% and the “Median duration Active waking” value (Sprague-Dawley rats [1]; [11]) was −37* %. For the same compound, the “Median duration Deep sleep” value (Sprague-Dawley rats [1]; [11]) was −7%, the “Median duration Intermediate sleep” value (Sprague-Dawley rats [1]; [11]) was 36% and the “Median duration Light sleep” value (Sprague-Dawley rats [1]; [11]) was 67%. The “Median duration Passive waking” value (Sprague-Dawley rats [1]; [11]) was 55%, the “Median duration REM sleep” value (Sprague-Dawley rats [1]; [11]) was 40% and the “Latency … to Deep sleep” value (Sprague-Dawley rats [1]; [12]) was 268%. For the same compound, the “Latency … to REM sleep” value (Sprague-Dawley rats [1]; [12]) was 673* %, the “Median duration Active waking” value (Sprague-Dawley rats [1]; [12]) was 72% and the “Median duration Deep sleep” value (Sprague-Dawley rats [1]; [12]) was −63* %. For the same compound, the “Median duration Intermediate sleep” value (Sprague-Dawley rats [1]; [12]) was −100* %, the “Median duration Light sleep” value (Sprague-Dawley rats [1]; [12]) was −2% and the “Median duration Passive waking” value (Sprague-Dawley rats [1]; [12]) was 198%. The “Median duration REM sleep” value (Sprague-Dawley rats [1]; [12]) was −100* %, the “Median duration Active waking” value (Sprague-Dawley rats [1]; [13]) was −18% and the “Median duration Deep sleep” value (Sprague-Dawley rats [1]; [13]) was −19%. The “Median duration Intermediate sleep” value (Sprague-Dawley rats [1]; [13]) was 56%, the “Median duration Light sleep” value (Sprague-Dawley rats [1]; [13]) was 35% and the “Median duration Passive waking” value (Sprague-Dawley rats [1]; [13]) was −40%. For the same compound, the “Median duration REM sleep” value (Sprague-Dawley rats [1]; [13]) was −50* %, the “Median duration Active waking” value (Sprague-Dawley rats [1]; [14]) was −23* % and the “Median duration Deep sleep” value (Sprague-Dawley rats [1]; [14]) was −5%. For the same compound, the “Median duration Intermediate sleep” value (Sprague-Dawley rats [1]; [14]) was 108* %, the “Median duration Light sleep” value (Sprague-Dawley rats [1]; [14]) was 23% and the “Median duration Passive waking” value (Sprague-Dawley rats [1]; [14]) was 7%. For the same compound, the “Median duration REM sleep” value (Sprague-Dawley rats [1]; [14]) was 64%, the “Probability score AC (anticonvulsant)” value (Sprague-Dawley rats [2]; gepirone 1.0 mg/kg) was 7% and the “Probability score AD (antidepressant)” value (Sprague-Dawley rats [2]; gepirone 1.0 mg/kg) was 1%. For the same compound, the “Probability score APS (antipsychotic)” value (Sprague-Dawley rats [2]; gepirone 1.0 mg/kg) was 31%, the “Probability score AXL (anxiolytic)” value (Sprague-Dawley rats [2]; gepirone 1.0 mg/kg) was 6% and the “Probability score HYP (hypnotic)” value (Sprague-Dawley rats [2]; gepirone 1.0 mg/kg) was 20%. The “Probability score PLAC (placebo)” value (Sprague-Dawley rats [2]; gepirone 1.0 mg/kg) was 35%, the “Probability score STIM (stimulant)” value (Sprague-Dawley rats [2]; gepirone 1.0 mg/kg) was 0% and the “Probability score AC (anticonvulsant)” value (Sprague-Dawley rats [2]; gepirone 3.0 mg/kg) was 29%. For the same compound, the “Probability score AD (antidepressant)” value (Sprague-Dawley rats [2]; gepirone 3.0 mg/kg) was 28%, the “Probability score APS (antipsychotic)” value (Sprague-Dawley rats [2]; gepirone 3.0 mg/kg) was 14% and the “Probability score AXL (anxiolytic)” value (Sprague-Dawley rats [2]; gepirone 3.0 mg/kg) was 15%. For the same compound, the “Probability score HYP (hypnotic)” value (Sprague-Dawley rats [2]; gepirone 3.0 mg/kg) was 9%, the “Probability score PLAC (placebo)” value (Sprague-Dawley rats [2]; gepirone 3.0 mg/kg) was 6% and the “Probability score STIM (stimulant)” value (Sprague-Dawley rats [2]; gepirone 3.0 mg/kg) was 0%. The “Probability score AC (anticonvulsant)” value (Sprague-Dawley rats [2]; gepirone 10.0 mg/kg) was 6%, the “Probability score AD (antidepressant)” value (Sprague-Dawley rats [2]; gepirone 10.0 mg/kg) was 16% and the “Probability score APS (antipsychotic)” value (Sprague-Dawley rats [2]; gepirone 10.0 mg/kg) was 3%. For the same compound, the “Probability score AXL (anxiolytic)” value (Sprague-Dawley rats [2]; gepirone 10.0 mg/kg) was 63%, the “Probability score HYP (hypnotic)” value (Sprague-Dawley rats [2]; gepirone 10.0 mg/kg) was 0% and the “Probability score PLAC (placebo)” value (Sprague-Dawley rats [2]; gepirone 10.0 mg/kg) was 0%. The “Probability score STIM (stimulant)” value (Sprague-Dawley rats [2]; gepirone 10.0 mg/kg) was 12%.
